27 compounds from US8461152B2, “Arylcyclohexylethers of dihydrotetraazabenzoazulenes” (Hoffmann-La Roche Inc., priority 2008, dated 2013) can be followed below.

Molecules are shown by their SMILES. Structures can show the parent of a compound that is named as a salt.

For this test, the target named is T1, human V1a receptor (Homo sapiens, UniProt P37288).
T1 construct: expressed in transfected cells; host or cells: HEK293 cells, transiently transfected; membrane preparation
T1 sequence (P37288 whole entry): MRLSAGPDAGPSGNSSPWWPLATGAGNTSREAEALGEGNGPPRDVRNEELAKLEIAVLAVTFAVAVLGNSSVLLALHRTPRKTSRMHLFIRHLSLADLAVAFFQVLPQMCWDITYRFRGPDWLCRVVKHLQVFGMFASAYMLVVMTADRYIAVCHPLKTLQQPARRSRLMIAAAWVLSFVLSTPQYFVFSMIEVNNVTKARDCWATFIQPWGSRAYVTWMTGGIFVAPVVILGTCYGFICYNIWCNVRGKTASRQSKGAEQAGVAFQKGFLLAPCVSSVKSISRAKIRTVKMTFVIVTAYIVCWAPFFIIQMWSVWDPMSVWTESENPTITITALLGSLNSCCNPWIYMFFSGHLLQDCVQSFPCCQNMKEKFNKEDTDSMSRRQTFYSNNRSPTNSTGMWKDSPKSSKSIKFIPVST
Description: human V1a receptor binding studies (SPA, 3H-Vasopressin, membranes of transfected HEK293 cells). Particulars: displacement of 3H-Vasopressin, HEK293 cell membranes, 1 h at room temperature; Ki by Cheng-Prussoff equation; read-out: pKi (hV1a) (converted). The procedure:
The human V1a receptor was cloned by RT-PCR from total human liver RNA. The coding sequence was subcloned in an expression vector after sequencing to confirm the identity of the amplified sequence. […] Cell membranes were prepared from HEK293 cells transiently transfected with the expression vector and grown in 20 liter fermenters with the following protocol.
50 g of cells are resuspended in 30 ml freshly prepared ice cold Lysis buffer (50 mM HEPES, 1 mM EDTA, 10 mM magnesium dichloride adjusted to pH=7.4+complete cocktail of protease inhibitor (Roche Diagnostics)). Homogenized with Polytron for 1 min and sonicated on ice for 2×2 minutes at 80% intensity (Vibracell sonicator). The preparation is centrifuged 20 min at 500 g at 4° C., the pellet is discarded and the supernatant centrifuged 1 hour at 43'000 g at 4° C. (19'000 rpm). The pellet is resuspended in 12.5 ml Lysis buffer+12.5 ml Sucrose 20% and homogenized using a Polytron for 1-2 min. The protein concentration is determined by the Bradford method and aliquots are stored at −80° C. until use. For binding studies 60 mg Yttrium silicate SPA beads (Amersham) are mixed with an aliquot of membrane in binding buffer (50 mM Tris, 120 mM sodium chloride, 5 mM potassium chloride, 2 mM Calcium dichloride, 10 mM magnesium dichloride) for 15 minutes with mixing. 50 μl of bead/membrane mixture is then added to each well of a 96 well plate, followed by 50 μl of 4 nM 3H-Vasopressin (American Radiolabeled Chemicals). For total binding measurement 100 μl of binding buffer are added to the respective wells, for non-specific binding 100 μl of 8.4 mM cold vasopressin and for compound testing 100 μl of a serial dilution of each compound in 2% dimethyl sulfoxide. The plate is incubated 1 h at room temperature, centrifuged […] at 1000 g and counted on a Packard Top-Count. Non-specific binding counts are subtracted from each well and data is normalized to the maximum specific binding set at 100%. To calculate an IC 50 the curve is fitted using a non-linear regression model (XLfit) and the Ki is calculated using the Cheng-Prussoff equation.
As to `Clc1ccc(O[C@H]2CC[C@H](c3nnc4n3-c3ccc(Cl)cc3CNC4)CC2)nc1` [Example 74, trans-8-Chloro-1-[4-(5-chloro-pyridin-2-yloxy)-cyclohexyl]-5,6-dihydro-4H-2,3,5,10b-tetraaza-benzo[e]azulene hydrochloride], the Ki was 11.2 nM. Consider `CC(C)N1Cc2cc(Cl)ccc2-n2c(nnc2[C@H]2CC[C@H](Oc3ccccc3)CC2)C1` [Example 7, trans-8-Chloro-5-isopropyl-1-(4-phenoxy-cyclohexyl)-5,6-dihydro-4H-2,3,5,10b-tetraaza-benzoazulene], for which the Ki was 1.7 nM. For `CN1Cc2cc(Cl)ccc2-n2c(nnc2[C@H]2CC[C@H](Oc3cccc(C#N)c3)CC2)C1` [Example 34, trans-3-[4-(8-Chloro-5-methyl-5,6-dihydro-4H-2,3,5,10b-tetraaza-benzoazulen-1-yl)-cyclohexyloxy]-benzo nitrile], the Ki was 2.69 nM. For `CC(C)(C)OC(=O)N1Cc2cc(Cl)ccc2-n2c(nnc2[C@H]2CC[C@H](Oc3cncc(Cl)c3)CC2)C1` [Example 64, trans-8-Chloro-1-[4-(5-chloro-pyridin-3-yloxy)-cyclohexyl]-4H,6H-2,3,5,10b-tetraaza-benzoazulene-5-carboxylic acid tert-butyl ester], the Ki was 9.55 nM. On to `CS(=O)(=O)N1Cc2cc(Cl)ccc2-n2c(nnc2[C@H]2CC[C@H](Oc3ccccc3)CC2)C1` [Example 5, trans-8-Chloro-5-methanesulfonyl-1-(4-phenoxy-cyclohexyl)-5,6-dihydro-4H-2,3,5,10b-tetraaza-benzoazulene], for which the Ki was 1.7 nM. Under `Fc1ccc(O[C@H]2CC[C@H](c3nnc4n3-c3ccc(Cl)cc3CNC4)CC2)cc1` [Example 18, trans-8-Chloro-1-[4-(4-fluoro-phenoxy)-cyclohexyl]-5,6-dihydro-4H-2,3,5,10b-tetraaza-benzo[e]azulene hydrochloride] stands 9.55 nM; under `CN1Cc2cc(Cl)ccc2-n2c(nnc2[C@H]2CC[C@H](Oc3cccnn3)CC2)C1` [Example 95, trans-8-Chloro-5-methyl-1-[4-(pyridazin-3-yloxy)-cyclohexyl]-5,6-dihydro-4H-2,3,5,10b-tetraaza-benzo[e]azulene], 9.12 nM. As for `Clc1ccc2c(c1)CNCc1nnc([C@H]3CC[C@H](Oc4ccccn4)CC3)n1-2` [Example 68, trans-8-Chloro-1-[4-(pyridin-2-yloxy)-cyclohexyl]-5,6-dihydro-4H-2,3,5,10b-tetraaza-benzoazulene hydrochloride], the Ki was 6.17 nM. The same measure for `CN1Cc2cc(F)ccc2-n2c(nnc2[C@H]2CC[C@H](Oc3ccccc3)CC2)C1` [Example 13, trans-8-Fluoro-5-methyl-1-(4-phenoxy-cyclohexyl)-5,6-dihydro-4H-2,3,5,10b-tetraaza-benzoazulene]: 5.37 nM; for `CC(C)(C)OC(=O)N1Cc2cc(Cl)ccc2-n2c(nnc2[C@H]2CC[C@H](Oc3cnccn3)CC2)C1` [Example 83, trans-8-Chloro-1-[4-(pyrazin-2-yloxy)-cyclohexyl]-4H,6H-2,3,5,10b-tetraaza-benzo[e]azulene-5-carboxylic acid tert-butyl ester]: 4.07 nM; for `CN1Cc2cc(Cl)ccc2-n2c(nnc2[C@H]2CC[C@H](Oc3ncccn3)CC2)C1` [Example 82, trans-8-Chloro-5-methyl-1-[4-(pyrimidin-2-yloxy)-cyclohexyl]-5,6-dihydro-4H-2,3,5,10b-tetraaza-benzo[e]azulene]: 5.5 nM. Under `N#Cc1ccccc1O[C@H]1CC[C@H](c2nnc3n2-c2ccc(Cl)cc2CNC3)CC1` [Example 47, trans-2-[4-(8-Chloro-5,6-dihydro-4H-2,3,5,10b-tetraaza-benzo[e]azulen-1-yl)-cyclohexyloxy]-benzonitrile hydrochloride] stands 1.2 nM. In the case of `CN1Cc2cc(Cl)ccc2-n2c(nnc2[C@H]2CC[C@H](Oc3ccccc3)CC2)C1` [Example 3, trans-8-Chloro-5-methyl-1-(4-phenoxy-cyclohexyl)-5,6-dihydro-4H-2,3,5,10b-tetraaza-benzo[e]azulene], the Ki was 1.58 nM.

Regarding `CC(C)(C)OC(=O)N1Cc2cc(Cl)ccc2-n2c(nnc2[C@H]2CC[C@H](Oc3ccccc3F)CC2)C1` [Example 43, trans-8-Chloro-1-[4-(2-fluoro-phenoxy)-cyclohexyl]-4H,6H-2,3,5,10b-tetraaza-benzo[e]azulene-5-carboxylic acid tert-butyl ester], the Ki was 6.17 nM. Under `CN1Cc2cc(Cl)ccc2-n2c(nnc2[C@H]2CC[C@H](Oc3ccc(C#N)cc3)CC2)C1` [Example 22, trans-4-[4-(8-Chloro-5-methyl-5,6-dihydro-4H-2,3,5,10b-tetraaza-benzo[e]azulen-1-yl)-cyclohexyloxy]-benzonitrile] stands 8.91 nM; under `Fc1cccnc1O[C@H]1CC[C@H](c2nnc3n2-c2ccc(Cl)cc2CNC3)CC1` [Example 98, trans-8-Chloro-1-[4-(3-fluoro-pyridin-2-yloxy)-cyclohexyl]-5,6-dihydro-4H-2,3,5,10b-tetraaza-benzo[e]azulene], 3.02 nM. Under `CC(C)(C)OC(=O)N1Cc2cc(Cl)ccc2-n2c(nnc2[C@H]2CC[C@H](Oc3ccc4ccccc4c3)CC2)C1` [Example 55, trans-8-Chloro-1-[4-(naphthalen-2-yloxy)-cyclohexyl]-4H,6H-2,3,5,10b-tetraaza-benzoazulene-5-carboxylic acid tert-butyl ester] stands 9.33 nM.

Regarding `CC(C)(C)OC(=O)N1Cc2cc(Cl)ccc2-n2c(nnc2[C@H]2CC[C@H](Oc3cccc(Cl)n3)CC2)C1` [Example 70, trans-8-Chloro-1-[4-(6-chloro-pyridin-2-yloxy)-cyclohexyl]-4H,6H-2,3,5,10b-tetraaza-benzo[e]azulene-5-carboxylic acid tert-butyl ester], the Ki is 9.12 nM. For the compound `CN1Cc2cc(Cl)ccc2-n2c(nnc2[C@H]2CC[C@H](Oc3cccc(Cl)n3)CC2)C1` [Example 72, trans-8-Chloro-1-[4-(6-chloro-pyridin-2-yloxy)-cyclohexyl]-5-methyl-5,6-dihydro-4H-2,3,5,10b-tetraaza-benzo[e]azulene], the Ki was 2.4 nM.

Take `CN1Cc2cc(Cl)ccc2-n2c(nnc2[C@H]2CC[C@H](Oc3cncc(Cl)c3)CC2)C1` [Example 66, trans-8-Chloro-1-[4-(5-chloro-pyridin-3-yloxy)-cyclohexyl]-5-methyl-5,6-dihydro-4H-2,3,5,10b-tetraaza-benzoazulene]: the Ki is 9.12 nM. Regarding `CC(C)(C)OC(=O)N1Cc2cc(F)ccc2-n2c(nnc2[C@H]2CC[C@H](Oc3ccccc3)CC2)C1` [Example 11, trans-8-Fluoro-1-(4-phenoxy-cyclohexyl)-4H,6H-2,3,5,10b-tetraaza-benzo[e]azulene-5-carboxylic acid tert-butyl ester], the Ki was 5.5 nM. Take `Cc1cccc(O[C@H]2CC[C@H](c3nnc4n3-c3ccc(Cl)cc3CN(C(=O)OC(C)(C)C)C4)CC2)c1` [Example 35, trans-8-Chloro-1-(4-m-tolyloxy-cyclohexyl)-4H,6H-2,3,5,10b-tetraaza-benzo[e]azulene-5-carboxylic acid tert-butyl ester]: the Ki was 4.9 nM.

Regarding `CN1Cc2cc(Cl)ccc2-n2c(nnc2[C@H]2CC[C@H](Oc3cc(F)cc(F)c3)CC2)C1` [Example 54, trans-8-Chloro-1-[4-(3,5-difluoro-phenoxy)-cyclohexyl]-5-methyl-5,6-dihydro-4H-2,3,5,10b-tetraaza-benzoazulene], the Ki is 3.89 nM. Consider `Cc1ccccc1O[C@H]1CC[C@H](c2nnc3n2-c2ccc(Cl)cc2CN(C)C3)CC1` [Example 51, trans-8-Chloro-5-methyl-1-(4-o-tolyloxy-cyclohexyl)-5,6-dihydro-4H-2,3,5,10b-tetraaza-benzoazulene], for which the Ki was 3.72 nM. On to `CN(C)CC(=O)N1Cc2cc(Cl)ccc2-n2c(nnc2[C@H]2CC[C@H](Oc3ccccc3)CC2)C1` [Example 10, trans-1-[8-Chloro-1-(4-phenoxy-cyclohexyl)-4H,6H-2,3,5,10b-tetraaza-benzoazulen-5-yl]-2-dimethylamino-ethanone], for which the Ki is 2.09 nM. The same measure for `CC(=O)N1Cc2cc(Cl)ccc2-n2c(nnc2[C@H]2CC[C@H](Oc3ccccc3)CC2)C1` [Example 4, trans-1-[8-Chloro-1-(4-phenoxy-cyclohexyl)-4H,6H-2,3,5,10b-tetraaza-benzoazulen-5-yl]-ethanone]: 1.41 nM; for `CN1Cc2cc(Cl)ccc2-n2c(nnc2[C@H]2CC[C@H](Oc3ccccc3F)CC2)C1` [Example 45, trans-8-Chloro-1-[4-(2-fluoro-phenoxy)-cyclohexyl]-5-methyl-5,6-dihydro-4H-2,3,5,10b-tetraaza-benzo[e]azulene]: 3.63 nM.
